# Experimental data from ChEMBL document CHEMBL3734723, “Synthesis and anticancer activity of 6-heteroarylcoumarins” (2015).
# Experiments:
# Type in all cases: functional
# [1] = Growth inhibition of human RPMI8226 cells incubated for 48 hrs by sulforhodamine B assay; conditions: RPMI-8226, 48 h; for CC50: read-out: LC50 (the source's name)
# [2] = tested on: NCI-H460; test: Cytotoxicity against human NCI-H460 cells assessed as cell growth at 10 uM incubated for 48 hrs by sulforhodamine B assay; conditions: NCI-H460, 48 h, read-out: Activity
# [3] = Growth inhibition of human UO31 cells incubated for 48 hrs by sulforhodamine B assay; conditions: UO-31, 48 h; for CC50: read-out: LC50 (the source's name)
# [4] = tested on: Malme-3M; test: Growth inhibition of human MALME-3M cells incubated for 48 hrs by sulforhodamine B assay; conditions: for CC50: read-out: LC50 (the source's name)
# [5] = tested on: U-251; test: Growth inhibition of human U251 cells incubated for 48 hrs by sulforhodamine B assay; conditions: U-251, 48 h; for CC50: read-out: LC50 (the source's name)
# [6] = Growth inhibition of human ovarian cancer cells after 48 hrs by sulforhodamine B assay; conditions: Cancer cell lines; for CC50: read-out: LC50 (the source's name)
# [7] = tested on: MDA-MB-468; test: Growth inhibition of human MDA-MB-468 cells incubated for 48 hrs by sulforhodamine B assay; conditions: MDA-MB-468, 48 h; for CC50: read-out: LC50 (the source's name)
# [8] = Cytotoxicity against human UO31 cells assessed as cell growth at 10 uM incubated for 48 hrs by sulforhodamine B assay; conditions: UO-31, 48 h, read-out: Activity
# [9] = Growth inhibition of human LOXIMVI cells incubated for 48 hrs by sulforhodamine B assay; conditions: LOX IMVI; for CC50: read-out: LC50 (the source's name)
# [10] = Growth inhibition of human SKOV3 cells incubated for 48 hrs by sulforhodamine B assay; conditions: SK-OV-3, 48 h; for CC50: read-out: LC50 (the source's name)
# [11] = Growth inhibition of human prostate cancer cells after 48 hrs by sulforhodamine B assay; conditions: Cancer cell lines; for CC50: read-out: LC50 (the source's name)
# [12] = tested on: SR; test: Cytotoxicity against human SR cells assessed as cell growth at 10 uM incubated for 48 hrs by sulforhodamine B assay; conditions: read-out: Activity
# [13] = tested on: MCF7; test: Growth inhibition of human MCF7 cells incubated for 48 hrs by sulforhodamine B assay; conditions: MCF7, 48 h; for CC50: read-out: LC50 (the source's name)
# [14] = Cytotoxicity against human SNB19 cells assessed as cell growth at 10 uM incubated for 48 hrs by sulforhodamine B assay; conditions: SNB-19, 48 h, read-out: Activity
# [15] = tested on: NCI-H522; test: Cytotoxicity against human NCI-H522 cells assessed as cell growth at 10 uM incubated for 48 hrs by sulforhodamine B assay; conditions: NCI-H522, 48 h, read-out: Activity
# [16] = tested on: NCI-H460; test: Growth inhibition of human NCI-H460 cells incubated for 48 hrs by sulforhodamine B assay; conditions: NCI-H460, 48 h; for CC50: read-out: LC50 (the source's name)
# [17] = tested on: 786-0; test: Growth inhibition of human 786-0 cells incubated for 48 hrs by sulforhodamine B assay; conditions: 786-0, 48 h; for CC50: read-out: LC50 (the source's name)
# [18] = tested on: M14; test: Cytotoxicity against human M14 cells assessed as cell growth at 10 uM incubated for 48 hrs by sulforhodamine B assay; conditions: M14, 48 h, read-out: Activity
# [19] = Cytotoxicity against human Hs578T cells assessed as cell growth at 10 uM incubated for 48 hrs by sulforhodamine B assay; conditions: Hs-578T, read-out: Activity
# [20] = Cytotoxicity against human RPMI8226 cells assessed as cell growth at 10 uM incubated for 48 hrs by sulforhodamine B assay; conditions: RPMI-8226, 48 h, read-out: Activity
# [21] = Growth inhibition of human COLO205 cells incubated for 48 hrs by sulforhodamine B assay; conditions: COLO 205, 48 h; for CC50: read-out: LC50 (the source's name)
# [22] = tested on: EKVX; test: Cytotoxicity against human EKVX cells assessed as cell growth at 10 uM incubated for 48 hrs by sulforhodamine B assay; conditions: read-out: Activity
# [23] = Growth inhibition of human renal cancer cells after 48 hrs by sulforhodamine B assay; conditions: Cancer cell lines; for CC50: read-out: LC50 (the source's name)
# [24] = tested on: A549; test: Growth inhibition of human A549 cells incubated for 48 hrs by sulforhodamine B assay; conditions: A549, 48 h; for CC50: read-out: LC50 (the source's name)
# [25] = tested on: KM12; test: Growth inhibition of human KM12 cells incubated for 48 hrs by sulforhodamine B assay; conditions: KM12, 48 h; for CC50: read-out: LC50 (the source's name)
# [26] = tested on: M14; test: Growth inhibition of human M14 cells incubated for 48 hrs by sulforhodamine B assay; conditions: M14, 48 h; for CC50: read-out: LC50 (the source's name)
# [27] = Growth inhibition of human OVCAR8 cells incubated for 48 hrs by sulforhodamine B assay; conditions: OVCAR-8, 48 h; for CC50: read-out: LC50 (the source's name)
# [28] = Cytotoxicity against human NCI-ADR-RES cells assessed as cell growth at 10 uM incubated for 48 hrs by sulforhodamine B assay; conditions: read-out: Activity
# [29] = Cytotoxicity against human HOP92 cells assessed as cell growth at 10 uM incubated for 48 hrs by sulforhodamine B assay; conditions: HOP-92, 48 h, read-out: Activity
# [30] = tested on: SK-MEL-2; test: Growth inhibition of human SK-MEL-2 cells incubated for 48 hrs by sulforhodamine B assay; conditions: SK-MEL-2, 48 h; for CC50: read-out: LC50 (the source's name)
# [31] = tested on: SK-MEL-28; test: Growth inhibition of human SK-MEL-28 cells incubated for 48 hrs by sulforhodamine B assay; conditions: SK-MEL-28, 48 h; for CC50: read-out: LC50 (the source's name)
# [32] = Cytotoxicity against human UACC257 cells assessed as cell growth at 10 uM incubated for 48 hrs by sulforhodamine B assay; conditions: UACC-257, 48 h, read-out: Activity
# [33] = tested on: SR; test: Growth inhibition of human SR cells incubated for 48 hrs by sulforhodamine B assay
# [34] = Growth inhibition of human HL-60(TB) cells incubated for 48 hrs by sulforhodamine B assay; conditions: HL-60, 48 h
# [35] = Cytotoxicity against human SKOV3 cells assessed as cell growth at 10 uM incubated for 48 hrs by sulforhodamine B assay; conditions: SK-OV-3, 48 h, read-out: Activity
# [36] = read-out: LC50 (the source's name)
compound,measurement,setting,value
Cc1cc(=O)oc2c(C)c(O)c(-c3ccnc(N)n3)cc12,GI50,[1],55.1 µM
same,TGI,[1],> 100 µM
same,CC50,[1],> 100 µM
same,growth at 10 µM,[2],19.8%
same,GI50,[3],2590 nM
same,TGI,[3],> 100 µM
same,CC50,[3],> 100 µM
same,GI50,[4],> 100000 nM
same,TGI,[4],> 100 µM
same,CC50,[4],> 100 µM
same,GI50,[5],8.59 µM
same,TGI,[5],> 100 µM
same,CC50,[5],> 100 µM
same,GI50,[6],42.5 µM
same,TGI,[6],> 100 µM
same,CC50,[6],> 100 µM
same,GI50,[7],4.53 µM
same,TGI,[7],> 100 µM
same,CC50,[7],> 100 µM
same,growth at 10 µM,[8],23%
same,GI50,[9],4.44 µM
same,TGI,[9],> 100 µM
same,CC50,[9],> 100 µM
same,GI50,[10],28.3 µM
same,TGI,[10],> 100 µM
same,CC50,[10],> 100 µM
same,GI50,[11],> 100 µM
same,TGI,[11],> 100 µM
same,CC50,[11],> 100 µM
same,growth at 10 µM,[12],9.17%
same,GI50,[13],2610 nM
same,TGI,[13],> 100 µM
same,CC50,[13],> 100 µM
same,growth at 10 µM,[14],64.1%
same,growth at 10 µM,[15],47%
same,GI50,[16],2440 nM
same,TGI,[16],> 100 µM
same,CC50,[16],> 100 µM
same,GI50,[17],29.8 µM
same,TGI,[17],> 100 µM
same,CC50,[17],> 100 µM
same,growth at 10 µM,[18],68.6%
same,growth at 10 µM,[19],51%
same,growth at 10 µM,[20],30.5%
same,GI50,[21],6.85 µM
same,TGI,[21],> 100 µM
same,CC50,[21],> 100 µM
same,growth at 10 µM,[22],46.7%
same,GI50,[23],10.6 µM
same,TGI,[23],> 100 µM
same,CC50,[23],> 100 µM
same,GI50,[24],3.03 µM
same,TGI,[24],> 100 µM
same,CC50,[24],> 100 µM
same,GI50,[25],> 100 µM
same,TGI,[25],> 100 µM
same,CC50,[25],> 100 µM
same,GI50,[26],> 100 µM
same,TGI,[26],> 100 µM
same,CC50,[26],> 100 µM
same,GI50,[27],6.95 µM
same,TGI,[27],> 100 µM
same,CC50,[27],> 100 µM
same,growth at 10 µM,[28],57.1%
same,growth at 10 µM,[29],47.4%
same,GI50,[30],88.1 µM
same,TGI,[30],> 100 µM
same,CC50,[30],> 100 µM
same,GI50,[31],> 100 µM
same,TGI,[31],> 100 µM
same,CC50,[31],> 100 µM
Cc1cc(=O)oc2c(C)c(O)c(-c3cc4ccc(F)cc4[nH]3)cc12,GI50,[1],1.9 µM
same,TGI,[1],6.19 µM
same,CC50,[1],> 100 µM
same,growth at 10 µM,[2],28.4%
same,GI50,[3],1710 nM
same,TGI,[3],6.21 µM
same,CC50,[3],25.5 µM
same,GI50,[4],1950 nM
same,TGI,[4],7.32 µM
same,CC50,[4],50.2 µM
same,GI50,[5],3.05 µM
same,TGI,[5],13.2 µM
same,CC50,[5],43.4 µM
same,GI50,[6],3.08 µM
same,TGI,[6],17.2 µM
same,CC50,[6],73.6 µM
same,GI50,[7],2.31 µM
same,TGI,[7],8.66 µM
same,CC50,[7],80.4 µM
same,growth at 10 µM,[32],30.4%
same,growth at 10 µM,[8],21.6%
same,GI50,[9],2.51 µM
same,TGI,[9],10.6 µM
same,CC50,[9],37.3 µM
same,GI50,[10],2.93 µM
same,TGI,[10],13.1 µM
same,CC50,[10],64.9 µM
same,GI50,[11],3.09 µM
same,TGI,[11],14.2 µM
same,CC50,[11],> 100 µM
same,growth at 10 µM,[12],28.4%
same,GI50,[13],2570 nM
same,TGI,[13],16.2 µM
same,CC50,[13],> 100 µM
same,growth at 10 µM,[14],31.6%
same,GI50,[33],3.24 µM
same,TGI,[33],16.9 µM
same,CC50,[33]; [36],> 100 µM
same,growth at 10 µM,[15],15%
same,GI50,[16],2820 nM
same,TGI,[16],10.5 µM
same,CC50,[16],66.6 µM
same,GI50,[17],4.1 µM
same,TGI,[17],14 µM
same,CC50,[17],42.6 µM
same,growth at 10 µM,[18],52.3%
same,GI50,[34],2960 nM
same,TGI,[34],9.69 µM
same,CC50,[34]; [36],> 100 µM
same,growth at 10 µM,[19],42.1%
same,growth at 10 µM,[20],8.76%
same,GI50,[21],11.7 µM
same,TGI,[21],25.6 µM
same,CC50,[21],56 µM
same,growth at 10 µM,[22],53.3%
same,growth at 10 µM,[35],47.1%
same,GI50,[23],2.94 µM
same,TGI,[23],10.8 µM
same,CC50,[23],43.1 µM
same,GI50,[24],3.82 µM
same,TGI,[24],15 µM
same,CC50,[24],58.4 µM
same,GI50,[25],3.03 µM
same,TGI,[25],12.4 µM
same,CC50,[25],42 µM
same,GI50,[26],3.29 µM
same,TGI,[26],12.7 µM
same,CC50,[26],36.7 µM
same,GI50,[27],3.88 µM
same,TGI,[27],24 µM
same,CC50,[27],> 100 µM
same,growth at 10 µM,[28],20.7%
same,growth at 10 µM,[29],-9.31%
same,GI50,[30],3.12 µM
same,TGI,[30],7.34 µM
same,CC50,[30],41.5 µM
same,GI50,[31],4.58 µM
same,TGI,[31],18.3 µM
same,CC50,[31],64.2 µM
